Values of other authors, collected in article PMC7589057, “Synthesis of Hantzsch Adducts as Cholinesterases and Calcium Flux inhibitors, Antioxidants and Neuroprotectives” (International Journal of Molecular Sciences, 2020).
Where two headings read alike, the source gives them in different places.

Columns and labels:
[1] = system: SH-SY5Y cells; parameters: method as in PMID 27736061; settings: 0.1 µM, cited from earlier work
[2] = system: SH-SY5Y cells; parameters: method as in PMID 27736061; settings: 0.1 µM; cited from earlier work

SMILES: COc1ccc2[nH]cc(CCNC(C)=O)c2c1 [MEL, melatonin]
- O/R (%) neuroprotection ([1]; listed as Melatonin): 66.6 ± 3.01 ***[10] %
- O/R (%) neuroprotection ([1]; listed as melatonin): 66.6%
- H2O2 (%) neuroprotection [2]: 55.4 ± 7.73 *[10] %
